Legend:
Format in all cases: in vivo
Thrips tabaci = Thrips tabaci (onion thrips) sunflower leaf disc test; details: foliar, 168 h, 200 ppm sprayed on sunflower leaf discs, mixed ages, mortality after 7 days
Protocol: Thrips tabaci (Onion Thrips): Sunflower leaf discs were placed on agar in a 24-well microtiter plate and sprayed with test solutions at an application rate of 200 ppm. After drying, the leaf discs were infested with a thrips population of mixed ages. After an incubation period of 7 days, samples were checked for mortality.

Heliothis virescens = Heliothis virescens (tobacco budworm) egg test on artificial diet; details: 96 h, 200 ppm (concentration in well 18 ppm), eggs on artificial diet, egg mortality, larval mortality, growth regulation after 4 days
Protocol: Heliothis virescens (Tobacco Budworm): Eggs (0-24 h old) were placed in 24-well microtiter plate on artificial diet and treated with test solutions at an application rate of 200 ppm (concentration in well 18 ppm) by pipetting. After an incubation period of 4 days, samples were checked for egg mortality, larval mortality, and growth regulation.

Spodoptera littoralis = Spodoptera littoralis (Egyptian cotton leafworm) cotton leaf disc test; details: foliar, 72 h, 200 ppm sprayed on cotton leaf discs, mortality, feeding behavior, growth regulation 3 days after treatment
Protocol: Spodoptera littoralis (Egyptian Cotton Leafworm): Cotton leaf discs were placed on agar in a 24-well microtiter plate and sprayed with test solutions at an application rate of 200 ppm. After drying, the leaf discs were infested with […]. The samples were checked for mortality, feeding behavior, and growth regulation 3 days after treatment (DAT).

Plutella xylostella = Plutella xylostella (diamond back moth) artificial diet test; details: 144 h, 200 ppm (concentration in well 18 ppm), L2 larvae, larval mortality and growth regulation after 6 days
Protocol: Plutella xylostella (Diamond Back Moth): 24-well microtiter plate (MTP) with artificial diet was treated with test solutions at an application rate of 200 ppm (concentration in well 18 ppm) by pipetting. After drying, the MTPs were infested with L2 larvae (7-12 per well). After an incubation period of 6 days, samples were checked for larval mortality and growth regulation.

Tetranychus urticae = Tetranychus urticae (two-spotted spider mite) bean leaf disc test; details: foliar, 192 h, 200 ppm sprayed on bean leaf discs, mixed ages, egg, larval and adult mortality 8 days later
From the text: Tetranychus urticae (Two-Spotted Spider Mite): Bean leaf discs on agar in 24-well microtiter plates were sprayed with test solutions at an application rate of 200 ppm. After drying, the leaf discs are infested with mite populations of mixed ages. 8 days later, discs are checked for egg mortality, larval mortality, and adult mortality.

Diabrotica balteata = Diabrotica balteata (corn root worm) artificial diet test; details: 120 h, 200 ppm (concentration in well 18 ppm), L2 larvae, larval mortality and growth regulation after 5 days
Protocol: Diabrotica balteata (Corn Root Worm): A 24-well microtiter plate (MTP) with artificial diet was treated with test solutions at an application rate of 200 ppm (concentration in well 18 ppm) by pipetting. After drying, the MTPs were infested with L2 larvae (6-10 per well). After an incubation period of 5 days, samples were checked for larval mortality and growth regulation.

Measured: pest or weed control at 200 ppm

Cc1cc(C2=NSC(c3cc(Cl)cc(Cl)c3)(C(F)(F)F)C2)ccc1C(=O)Nc1cncnc1 (stereo not drawn) [Compound A48]
≥ 80%: all assays above

Cc1cc(C2=NSC(c3cc(Cl)cc(Cl)c3)(C(F)(F)F)C2)ccc1C(=O)NC1CCc2ccccc21 (stereo not drawn) [Compound A50]
≥ 80%: all assays above

COCCNC(=O)c1ccc(C2=NSC(c3cc(Cl)cc(Cl)c3)(C(F)(F)F)C2)cc1C (stereo not drawn) [Compound A51]
≥ 80%: all assays above

Cc1cc(C2=NSC(c3cc(Cl)cc(Cl)c3)(C(F)(F)F)C2)ccc1C(=O)NC1CC1 (stereo not drawn) [Compound A52]
≥ 80%: all assays above

Cc1cc(C2=NSC(c3cc(Cl)cc(Cl)c3)(C(F)(F)F)C2)ccc1C(=O)NCCC1OCCO1 (stereo not drawn) [Compound A54]
≥ 80%: all assays above

Cc1cc(C2=NSC(c3cc(Cl)cc(Cl)c3)(C(F)(F)F)C2)ccc1C(=O)Nc1ccccc1F (stereo not drawn) [Compound A60]
≥ 80%: all assays above

CNC(=O)c1ccc(C2=NSC(c3cc(Cl)cc(Cl)c3)(C(F)(F)F)C2)cc1C (stereo not drawn) [Compound A62]
≥ 80%: all assays above

C=CCNC(=O)c1ccc(C2=NSC(c3cc(Cl)cc(Cl)c3)(C(F)(F)F)C2)cc1C (stereo not drawn) [Compound A63]
≥ 80%: all assays above

CCN1OC[C@@H](NC(=O)c2ccc(C3=NS[C@@](c4cc(Cl)cc(Cl)c4)(C(F)(F)F)C3)cc2C)C1=O [Compound A78, 4-[(5S)-5-(3,5-dichlorophenyl)-5-(trifluoromethyl)-4H-isothiazol-3-yl]-N-[(4R)-2-ethyl-3-oxo-isoxazolidin-4-yl]-2-methyl-benzamide]
≥ 80%: all assays above

Cc1cc(C2=NS[C@@](c3cc(Cl)cc(Cl)c3)(C(F)(F)F)C2)ccc1C(=O)N[C@@H]1CON(CC(F)(F)F)C1=O [Compound A79, 4-[(5S)-5-(3,5-dichlorophenyl)-5-(trifluoromethyl)-4H-isothiazol-3-yl]-2-methyl-N-[(4R)-3-oxo-2-(2,2,2-trifluoroethyl)isoxazolidin-4-yl]benzamide]
≥ 80%: all assays above

N#Cc1cc(C2=NSC(c3cc(Cl)cc(Cl)c3)(C(F)(F)F)C2)ccc1-n1cncn1 (stereo not drawn) [Compound B1, 5-[5-(3,5-dichlorophenyl)-5-(trifluoromethyl)-4,5-dihydro-isothiazol-3-yl]-2-(1,2,4-triazol-1-yl)benzonitrile]
≥ 80%: all assays above

N#Cc1cc(C2=NS[C@@](c3cc(Cl)c(Cl)c(Cl)c3)(C(F)(F)F)C2)ccc1-n1cncn1 [Compound B2, 2-(1,2,4-triazol-1-yl)-5-[(5S)-5-(3,4,5-trichlorophenyl)-5-(trifluoromethyl)-4H-isothiazol-3-yl]benzonitrile]
≥ 80%: all assays above

CCO/N=C/NC(=O)c1ccc(C2=NSC(c3cc(Cl)cc(Cl)c3)(C(F)(F)F)C2)cc1C (stereo not drawn) [Compound C2, 4-[5-(3,5-dichlorophenyl)-5-(trifluoromethyl)-4H-isothiazol-3-yl]-N-[(E)-ethoxyiminomethyl]-2-methyl-benzamide]
≥ 80%: all assays above

Cc1cc(C2=NSC(c3cc(Cl)c(Cl)c(Cl)c3)(C(F)(F)F)C2)ccc1C(=O)NC1CS(=O)(=O)C1 (stereo not drawn) [Compound D2, N-(1,1-dioxothietan-3-yl)-2-methyl-4-[5-(3,4,5-trichlorophenyl)-5-(trifluoromethyl)-4H-isothiazol-3-yl]benzamide]
≥ 80%: all assays above

Cc1cc(C2=NSC(c3cc(Cl)c(Cl)c(Cl)c3)(C(F)(F)F)C2)ccc1C(=O)NC1C[S+]([O-])C1 (stereo not drawn) [Compound D3, 2-methyl-N-(1-oxothietan-3-yl)-4-[5-(3,4,5-trichlorophenyl)-5-(trifluoromethyl)-4H-isothiazol-3-yl]benzamide]
≥ 80%: all assays above
